Entries after “also recorded” stand apart in the source; their conditions may differ.

The subject of assay [1] is Anopheles coluzzii mosquitoes. The assay can be described thus: Survival of mosquitoes given azithromycin blood meals. The format is in vivo. Particulars: azithromycin 0.1, 1 or 5 μg/ml in blood meals. As for the experimental part:
For each Plasmodium infection, at least 100 age-matched, 2- to 3-day-old, mosquitoes per condition are offered a control or experimental blood meal from a membrane-feeding device (2 ml Eppendorf tube) covered with parafilm and kept at 37° C. and nonengorged mosquitoes are removed. Meals are given every four days for a total of three blood meals. Between the blood meals, mosquitoes are provided with a cotton pad moistened with distilled water for oviposition. Unfed mosquitoes are not removed after the second and later blood meals. Deaths are counted daily and carcasses are removed and stored for Asaia analysis as described herein. At least 50 mosquitoes per concentration of azithromycin are used for each replicate. At the end of the last blood meal, mosquitoes are kept for 12 hours before dissection.
The survival rates of mosquitoes treated with azithromycin are compared to the mosquitoes treated with the negative control.

In another assay the test system is Asaia. Nature of the assay: Asaia quantification by qPCR in midguts of azithromycin blood-fed mosquitoes. Conditions: azithromycin 0.1, 1 or 5 μg/ml in blood meals; midgut. Format: in vivo, Anopheles coluzzii. As for the experimental part:
Therapeutic design: Blood meals mixed with azithromycin solutions are formulated with final antibiotic concentrations of 0 (negative control), 0.1, 1, or 5 μg/ml in 1 mL of blood.
Azithromycin solutions are made by dissolving azithromycin (SIGMA-ALDRICH, PZ0007) in DMSO. Different volumes of azithromycin solution are added to fresh blood to total 1 mL in preparation for blood meals. The final azithromycin concentrations in the blood are 0 (just solvent as control solution), 0.1, 1, or 5 μg/ml.
For each Plasmodium infection, at least 100 age-matched, 2- to 3-day-old, mosquitoes per condition are offered a control or experimental blood meal from a membrane-feeding device (2 ml Eppendorf tube) covered with parafilm and kept at 37° C. and nonengorged mosquitoes are removed. Meals are given every four days for a total of three blood meals. […] Deaths are counted daily and carcasses are removed and stored for Asaia analysis as described herein. […]
Before dissection, mosquitoes are immersed in 70% ethanol for 5 minutes then rinsed 3 times in sterile phosphate-buffered saline (PBS) to kill and remove surface bacteria, thus minimizing sample contamination with cuticle bacteria during dissection. […] The 16S ribosomal DNA (rDNA) is used for Asaia quantification and is shown as a ratio of the Anopheles housekeeping gene 40S ribosomal protein S7 (Vector-Base gene ID AGAP010592). […]

In assay [2] the test system is Acyrthosiphon pisum aphids. Nature of the assay: Aphid size (body area) from images. The format is in vivo. Conditions: 10 or 100 uM in artificial diet, 3 days post-treatment. On the procedure: (§1) For adult aphids, new nymphs were counted daily and then discarded. At the end of the experiments, fecundity was determined as the mean number of offspring produced daily once the aphid reached adulthood. Pictures of aphids were taken throughout the experiment to evaluate size differences between treatment groups.
Each treatment group received approximately the same number of individuals from each of the collection plant. For each treatment, 20 aphids were placed onto each leaf. Aphids were monitored daily for survival and dead aphids were removed when they were discovered. In addition, the developmental stage (1st, 2nd, 3rd, 4th, 5th instar, and 5 R, representing a reproducing 5th instar) was determined daily throughout the experiment. […]
(§2) For adult aphids, new nymphs were counted daily and then discarded. At the end of the experiments, fecundity was measured in two ways: 1) the mean day at which the first offspring for the treatment group was determined and 2) the mean number of offspring produced daily once the aphid reached adulthood. […]
Aphids LSR-1 (which harbor only Buchnera), Acyrthosiphon pisum were grown on fava bean plants (Vroma vicia faba from Johnny's Selected Seeds) in a climate-controlled incubator (16 h light/8 h dark photoperiod; 60±5% RH; 25±2° C.). […] Aphids were monitored daily for survival and dead aphids were removed from the deep petri dish when they were discovered. […]

A further assay deals with Buchnera. Nature of the assay: Buchnera/aphid DNA copy number by qPCR. Particulars: 10 or 100 uM, 8 days. Format: in vivo, Acyrthosiphon pisum.
Assay [3] concerns Acyrthosiphon pisum aphids. The assay can be described thus: Aphid developmental stage monitoring. Format: in vivo. On the procedure: (§3) In addition, the developmental stage (1st, 2nd, 3rd, 4th, 5th instar) was determined daily throughout the experiment. Once an aphid reached the 4th instar stage, they were given their own artificial feeding system in a deep petri dish so that fecundity could be monitored once they reached adulthood.
Each treatment group received approximately the same number of individuals from each of the collection plant. For each treatment, 20 aphids were placed onto each leaf. Aphids were monitored daily for survival and dead aphids were removed when they were discovered. In addition, the developmental stage (1st, 2nd, 3rd, 4th, 5th instar, and 5 R, representing a reproducing 5th instar) was determined daily throughout the experiment. Pictures of aphids were taken throughout the experiment to evaluate size differences between treatment groups.
Aphids LSR-1 (which harbor only Buchnera), Acyrthosiphon pisum were grown on fava bean plants (Vroma vicia faba from Johnny's Selected Seeds) in a climate-controlled incubator (16 h light/8 h dark photoperiod; 60±5% RH; 25±2° C.). Prior to being used for aphid rearing, fava bean plants were grown in potting soil at 24° C. with 16 h of light and 8 h of darkness. To limit maternal effects or health differences between plants, 5-10 adults from different plants were distributed among 10 two-week-old plants, and allowed to multiply to high density for 5-7 days. For experiments, first and second instar aphids were collected from healthy plants and divided into 2 different treatment groups: 1) negative control (leaf injected with water plus blue food coloring) and 2) leaf injected with 50 μg/ml rifampicin in water plus blue food coloring. Each treatment group received approximately the same number of individuals from each of the collection plants. For treatment, rifampicin stock solution (25 mg/ml in 100% methanol) was diluted to 50 μg/ml in water plus blue food coloring. The solution was then placed into a 1.5 ml Eppendorf tube with a fava bean stem perfused with the solutions and the opening of the tube was closed using parafilm. This feeding system was then placed into a deep petri dish (Fisher Scientific, Cat #FB0875711) and aphids were applied to the leaves of the plant. For each treatment, 74-81 aphids were placed onto each leaf. The feeding systems were changed every 2-3 days throughout the experiment. Aphids were monitored daily for survival and dead aphids were removed from the deep petri dish when they were discovered. In addition, the developmental stage (1st, 2nd, 3rd, 4th, 5th and 5 R (5th that has reproduced) instar) was determined daily throughout the experiment.
In addition, the developmental stage (1st 2nd, 3rd, 4th, 5th and 5 R (5th that has reproduced) instar) was determined daily throughout the experiment.
(§4) In addition, the developmental stage (1st, 2nd, 3rd, 4th, 5th, and 5 R (5th that has reproduced) instar) was determined daily throughout the experiment.
In addition, the developmental stage (1st, 2nd, 3rd, 4th, 5th and 5 R (5th that has reproduced) instar) was determined daily throughout the experiment.
In addition, the developmental stage (1st, 2nd, 3rd, 4th, 5th, and 5 R (5th instar aphids that are reproducing) instar) was determined daily throughout the experiment.
In addition, the developmental stage (1st, 2nd, 3rd 4th and 5th instar) was determined daily throughout the experiment.
(§5) In addition, the developmental stage (1st, 2nd, 3rd, 4th, 5th, and 5 R (5th that has reproduced) instar) was determined daily throughout the experiment. Once an aphid reached the 4th instar stage, they were given their own artificial feeding system in a deep petri dish so that fecundity could be monitored once they reached adulthood.
as §4

In assay [4] the test system is Acyrthosiphon pisum aphids. The assay can be described thus: Aphid survival monitoring. Format: in vivo.
Assay [5] concerns Acyrthosiphon pisum aphids. The assay can be described thus: Aphid fecundity. The format is in vivo. Particulars: 10 or 100 uM. On the procedure: as §3, §1, §5, §2
In addition, the developmental stage (1st, 2nd, 3rd, 4th, 5th instar) was determined daily throughout the experiment. […]

Assay [6] relates to gram-negative and gram-positive bacteria as well as fungi. Particulars: cited from earlier work.
[7] abbreviates: leaf coating, 10 uM in 0.025% Silwet L-77.

For the molecule `CC[C@H]1OC(=O)[C@H](C)[C@@H](O[C@H]2C[C@@](C)(OC)[C@@H](O)[C@H](C)O2)[C@H](C)[C@@H](O[C@@H]2O[C@H](C)C[C@H](N(C)C)[C@H]2O)[C@](C)(O)C[C@@H](C)CN(C)[C@H](C)[C@@H](O)[C@]1(C)O` [azithromycin], in assay [1], the “survival rate of mosquitoes” value is “decreased compared to the control”. The “Asaia specific genes (16S rDNA qPCR, ratio to S7)” value with Asaia is recorded as “reduction of Asaia specific genes”.
Take `CC(C)(CO)[C@@H](O)C(=O)NCCCO` [pantothenol]: the “aphid size (area)” value in assay [2] is “drastic effect; also recorded: smaller in area than untreated controls”. Also, the figures for the “Buchnera/aphid DNA copies” value in the assay on Buchnera and in the assay with Buchnera (listed as Pantothenol) were “does not affect Buchnera/aphid DNA copy number directly” and “did not affect endosymbiotic Buchnera”, respectively. Besides, the aphid development result in assay [3] (10 or 100 uM in artificial diet without essential amino acids, through plants, eNASCO) is given as “delayed aphid development”; in assay [3] (setting [7]), “did not affect aphid development”. The aphid survival entry is given as “increased aphid mortality; also recorded: negatively affected aphid fitness” in assay [4] (10 or 100 uM in artificial diet, through plants); “lower survival rates” in assay [4] (setting [7]); “aphid death” in assay [4] (leaf coating, 10 uM in 0.025% Silwet L-77, listed as Pantothenol). Further, the aphid reproduction entry in assay [5] is “loss of aphid reproduction”; in assay [5] (listed as Pantothenol) it was “loss of reproduction”.

B1: NCR335: NCR peptide, SEQ ID NO: 197 (peptide)
chain: MKMRIHMAQIIMFFYALIIFLSPFLVDRRSFPSSFVSPKSYTSEIPCKATRDCPYELYYETKCVDSLCTY
In the case of B1, the antimicrobial activity result in assay [6] was “effective against gram-negative and gram-positive bacteria as well as fungi”.

The values are drawn from patent US12171801B2, “Compositions and related methods for controlling vector-borne diseases” (priority 2017, dated 2024).
